For one data set, the system named is P388 leukemia. The data set can be described thus: P388 leukemia in mice, treatment QD at days 1-9 (National Cancer Institute screen). Format: in vivo. As to conditions: for 5 ILS* (increased life span) / 60 DAY "CURES" / SURVIAL TIME MEDIAN: QD days 1-9, P388 mice; for SURVIAL TIME MEDIAN: controls 10 days. An excerpt:
(§1) The National Cancer Institute conducted a screening test on samples of both Azetomicin I (3' prolyl, 3' azet) and Azetomicin II (3', 3' azet) as well as on Dactinomycin (3', 3' prolyl) that is also known as Actinomycin D or C1. The Azetomicin and Dactinomycin molecules are identical, with the exception of the 3' amino acid position on the peptides, wherein the 3' positions, in the case of Dactinomycin are both prolyl; in the case of the Azetomicin I are prolyl and azetidine-2-carboxyl; and in the cae of Azetomicin II are both azetidine-2-carboxyl.
P 388 LEUKEMIA : QD AT DAYS 1-9 TREATMENT

The next data set relates to ADVANCED P388 LEUKEMIA
The data set can be described thus: Advanced P388 leukemia in mice, treatment Q4D x 3 at days 5, 9, 13. As to conditions: 0.6 Mg/Kg/Inj., Q4D x 3 days 5, 9, 13, advanced P388. Format: in vivo.
Excerpt: as §1
ADVANCED P388 LEUKEMIA : Q4D × 3 AT DAYS 5, 9, 13 TREATMENT

The test system of data set [1] is advanced Ridgeway osteogenic sarcoma. The data set can be described thus: Drug-induced regression of advanced Ridgeway osteogenic sarcoma in mice. Format: in vivo. As for the experimental part: A sample of Azetomicin I was tested on mice infected with advanced Ridgeway osteogenic sarcoma. […] Data supplied by Dr. F. Schabel and his coworkers at Southern Research Institute has been collected in Table II below, with the results from Azetomicin I testing also noted: […]

Another data set deals with Rous sarcoma virus. The data set can be described thus: Development of visible tumors in chicks infected with Rous sarcoma virus, single injection. The following applies: injected once; compared with untreated or saline injected controls. Format: in vivo. As to the method: In another test, both Azetomicin I and Azetomicin II, were injected once into chicks infected with Rous sarcoma virus. The development of visible tumors was decreased by over 80% as compared with untreated or saline injected controls.

The subject of data set [2] is Bacillus subtilis, Staphylococcus aureus and Staphylococcus albus. The data set can be described thus: Inhibition of bacterial growth (cross section of gram-positive and gram-negative bacteria). Format: cell-based.
Data set [3] is described as follows: Toxicity per mg compared with Actinomicin D.
The nature of data set [4]: Storage stability in aqueous solution. Format: physicochemical. As to conditions: 0°-25° C, pH range of 5-8, maintained in the dark. As for the experimental part:
The major products of interest were determined to be Azetomicin I and Azetomycin II. They were stable after storage at 0°-25° C in aqueous solution in the pH range of 5-8 for at least 5 days when maintained in the dark.

Where [5] appears, read: schedule day 12, Azetomicin I testing.

We go through 1 substance from patent US4118482A (priority 1977, dated 1978).

Turning to Azetomicin I [AZETOMICIN-I], in the data set on P388 leukemia (0.05 Mg/Kg/Inj.), the “5 ILS* (increased life span)” value was found to be 150%, the “60 DAY "CURES"” value is given as 0% and the “SURVIAL TIME MEDIAN” value came to 25 days. In addition, in the data set with P388 leukemia (0.1 Mg/Kg/Inj.), the “5 ILS* (increased life span)” value was 155%, the “60 DAY "CURES"” value worked out at 0% and the “SURVIAL TIME MEDIAN” value was 25.5 days. In the data set with P388 leukemia (0.2 Mg/Kg/Inj.), the “5 ILS* (increased life span)” value is given as at least 500%, the “60 DAY "CURES"” value came to 60% and the “SURVIAL TIME MEDIAN” value is at least 60 days. In the data set on P388 leukemia (P388 leukemia mice, Table I), the “activity compared with Dactinomycin (summary of Table I)” value is reported as “clearly greater activity than both”. Moreover, in the data set with ADVANCED P388 LEUKEMIA, the “5 ILS* (increased life span)” value is 270% and the “60 DAY "CURES"” value is 0. The “SURVIAL TIME MEDIAN” value with ADVANCED P388 LEUKEMIA (controls 10 days) worked out at 37 days. In addition, the “animals with complete regression” value in data set [1] (of 10 animals treated, 12th day only injection schedule) is recorded as 10 animals. For the same substance, in data set [1] (setting [5]), the “"CURES" (Number/Total)” value was 10/10, the “REGRESSION 50+%-PARTIAL (Number/Total)” value is given as 10/10 and the “REGRESSION COMPLETE (Number/Total)” value was 10/10. The “decrease of development of visible tumors” value in the data set with Rous sarcoma virus was “over 80%”. Besides, the “activity against bacterial growth relative to Actinomicin D” value in data set [2] turned out to be 70%. Further, the “toxicity/mg. compared with Actinomicin D” value in data set [3] is listed as “substantially less toxic/mg”. The “time stable after storage in aqueous solution” value in data set [4] is on record as “at least 5 days”.
